The text below walks through data of patent US9597307B2 (priority 2012, dated 2017).

Where two headings read alike, the source gives them in different places.

In one data set the test system is H-4-II-E cells. The conditions noted are these: without or with 10 or 100 nM insulin, FIG. 3.
A further data set concerns Wistar rats. The conditions noted are these: high fructose diet, two weeks of daily injections 10 mg/kg, vs vehicle-treated control. The text has this: For intraperitoneal pyruvate tolerance tests, a high fructose diet was used to induce insulin resistance on a group of Wistar rats. […] Intraperitoneal pyruvate tolerance tests are a procedure where pyruvate is converted to glucose in gluconeo-genesis. The test specifically reflects the insulin sensitivity of the liver.

Another data set has as its system T2D signature. The conditions noted are these: Wistar rats, high fructose diet, two weeks of daily injections 10 mg/kg; p<0.0001 using Fisher's exact test.
For data set [1] the following is noted: cited from earlier work; for toxicity in studies / clinical testing: other indications (cancer and immune diseases), high doses.

Method for H-4-II-E cells: H-4-II-E cells were seeded 110,000/well in 24-well plates in their usual medium (EMEM from ATCC, no 30-2003 with addition of 10% FBS and penicillin/streptomycin) at day 0 and incubated with 0.25 mM palmitate-BSA (ratio 10:3) for 16 h ON day 2-3. […] The cells were washed 3 times with glucose output medium (GOM) without glucogenic substrates (118 mM NaCl, 4.7 mM KCl, 1.2 mM MgSO4, 1.2 mM KH2P04, 1.2 mM CaC12, 20 mM NaHCO3, 25 mM HEPES pH 7.4 and 0.025% BSA). Then 500 ul of GOM (118 mM NaCl, 4.7 mM KCl, 1.2 mM MgSO4, 1.2 mM KH2PO4, 1.2 mM CaCl2, 20 mM NaCO3, 25 mM HEPES pH 7.4, 0.025% BSA, 20 mM lactate, 2 mM pyruvate and 10 mM glutamine) and GOM with the addition of 10 or 100 nM insulin was added, and the cells were allowed to incubate for 5 h. After that, most of the incubation medium (375 ul) was removed and used for glucose measurements. The cells were washed once with cold PBS and lyzed with 200 ul RIPA buffer for determination of protein concentration. […] Glucose concentration in the buffer samples was determined using the AmplexRed Glucose/Glucose Oxidase Assay Kit (LifeTechnologies no. A22189) following the manufacturer's instructions. Protein concentration in the cell lysates was measured using Pierce BCA Protein Assay Kit (ThermoScientific no. 23225).
From the text for T2D signature: In a first attempt to use gene network analyses for drug repositioning, a panel of 50 genes that are perturbed in the liver in T2D (‘T2D signature’) were identified. The genes were selected using differential expression analysis, causality tests, and a Bayesian network algorithm to identify genes that regulate the expression of several other disease genes (‘key regulators’).
A high fructose diet was used to induce insulin resistance on a group of Wistar rats.

For the compound `C[S+]([O-])CCCCN=C=S` (stereo not drawn) [sulforaphane], the “hepatic glucose output, insulin-sensitive liver cells” value in the data set with H-4-II-E cells (10 uM sulforaphane for 28 h) was “decreases hepatic glucose output”. For the same compound, the “hepatic glucose output, insulin-resistant (induced by palmitate) liver cells” value with H-4-II-E cells (0.25 mM palmitate-BSA 16 h, then 10 uM sulforaphane for 28 h) was “decreases hepatic glucose output”. Also, the “result of the experiments repeated in animals on high-fat diet” value in the data set with animals on high-fat diet is “positive results”. Also, the “intraperitoneal pyruvate tolerance (insulin sensitivity of the liver)” value with Wistar rats (FIG. 2) is “significant positive effect”; in the data set with Wistar rats (FIG. 2, listed as Sulforaphane) it was “showed significant differences from a vehicle-treated control group”. In addition, in the data set on T2D signature, the “reversal of genes in the T2D signature in liver” value is given as “a major fraction of the genes in the T2D signature was reversed”. For the same compound, the “serious adverse events in ongoing studies” value in data set [1] (ongoing studies for other indications) is recorded as “no serious adverse events have been reported”. The “toxicity in studies / clinical testing” value in data set [1] is on record as “low toxicity even at high doses”; in data set [1] (listed as Sulforaphane), “very low toxicity even at high doses”.
